Like-named read-outs stand apart in the source and are kept apart here.
Experiments:
[1] = tested on: 20-HETE formation (CYP4) in HLM; experiment: Inhibition of 20-HETE formation at 250 or 500 nM in HLM microsomal incubations; assay type: biochemical, human; settings: 500 nM compound; HLM 300 μg/ml, AA 100 μM, 20 min
Outline: (§1)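 Microsomes (300 μg/ml) or rCYP4F2 (25 pmol/mL) were incubated with 100 μM arachidonic acid, 1 mM NADPH and test compound in 0.12 M potassium phosphate with 5 mM MgCl2 for 20 min at 37° C. 20-HETE was quantified by UPLC-MS/MS with 20-HETE-d6 internal standard and expressed as percent of vehicle (n=3).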

[2] = tested on: 20-HETE formation (CYP4) in HLM; experiment: IC50 determination, 20-HETE formation in HLM; assay type: biochemical, human; settings: HLM 300 μg/ml, AA 100 μM, 12 concentrations
Procedure: Microsomal incubations contained HLM, RLM (300 μg/ml), AA (100 μM), NADPH (1 mM) and test compounds at 12 concentrations (0.1 nM-50 μM) in a 1 ml total volume in microsomal incubation buffer (0.12 M potassium phosphate buffer containing 5 mM magnesium chloride). Reaction was started by adding NADPH to the incubates and was carried out at 37° C. in a shaking water bath for 20 min. Reaction was stopped by placing tubes on ice, followed by adding 12.5 μl 20-HETE-d6 as internal standard to each sample. Microsomal incubations were extracted with 3 ml ethyl ether twice, dried down under nitrogen gas and reconstituted in 125 μl 80:20 methanol:deionized H2O for analysis. 20-HETE formation was quantified using the validated UPLC-MS/MS assay described above and normalized by vehicle group. HET0016 (250 nM) was used as positive control. Incubates without NADPH group served as the negative control. IC50 was determined by fitting the dose-response curve using Graphpad Prism nonlinear regression.

[3] = target: T1, rCYP4F2 (Homo sapiens, UniProt P78329); experiment: Inhibition of 20-HETE formation at 250 or 500 nM in rCYP4F2 incubations; assay type: biochemical; settings: 500 nM compound; rCYP4F2 25 pmol/mL; read-out: rCYP4F2 % inh. @ 500 nM
T1 sequence (P78329 5-520): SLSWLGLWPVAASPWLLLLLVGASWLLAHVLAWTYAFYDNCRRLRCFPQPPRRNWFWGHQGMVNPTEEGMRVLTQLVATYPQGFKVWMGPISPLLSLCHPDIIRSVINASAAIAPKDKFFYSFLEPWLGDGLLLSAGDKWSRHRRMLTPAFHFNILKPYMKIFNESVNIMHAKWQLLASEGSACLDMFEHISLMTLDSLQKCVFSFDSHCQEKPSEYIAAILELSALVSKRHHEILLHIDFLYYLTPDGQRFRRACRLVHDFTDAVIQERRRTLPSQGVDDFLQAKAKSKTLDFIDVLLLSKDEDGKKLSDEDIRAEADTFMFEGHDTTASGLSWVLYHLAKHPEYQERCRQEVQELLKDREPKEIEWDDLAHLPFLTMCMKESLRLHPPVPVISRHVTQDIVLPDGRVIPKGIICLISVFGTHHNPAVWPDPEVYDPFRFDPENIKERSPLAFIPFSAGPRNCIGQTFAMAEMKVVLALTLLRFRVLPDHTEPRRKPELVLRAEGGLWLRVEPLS
Outline: as §1

[4] = HLM stability determination; assay type: in vitro ADME, human; settings: HLM 500 μg/ml, 1 μM compound, NADPH, relative to 0 min
Procedure: HLM stability determinations shown in Table 3 were obtained as follows. Microsomal incubates contained HLM (500 μg/ml), test compounds (1 μM) and NADPH (1.3 mM) in a 1 ml total volume of microsomal incubation buffer (0.12 M potassium phosphate buffer containing 5 mM magnesium chloride). Reaction was started by adding NADPH to the incubates and was carried out at 37° C. in a shaking water bath for 60 min. At 0, 15, 30, 45, 60 min, a 50 μl aliquot of incubates was taken out and reaction was stopped by adding aliquot into 200 μl ice-cold acetonitrile. After centrifugation at 14000×g for 5 min, 200 μl supernatant was taken out for UPLC-MS/MS analysis as described above. Values at 0 min were used as corresponding control for test compounds. Varapamil, metoprolol, and warfarin, categorized as fast, moderate and slow metabolism, were used as positive control. Incubates without NADPH group served as negative control.

[5] = tested on: 20-HETE formation (CYP4) in RLM; experiment: Inhibition of 20-HETE formation at 250 or 500 nM in RLM microsomal incubations; assay type: biochemical, rat; settings: 500 nM compound; RLM 300 μg/ml
Outline: as §1

[6] = Turbidometric solubility determination; assay type: physicochemical; settings: PBS with 1% DMSO, aqueous buffer, kinetic from dmso stock, room temperature
Outline: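 Precipitation was detected as a significant rise in absorbance at 620 nm over background, and this point set the maximum solubility. Compound was tested in PBS with 1% DMSO at final concentrations from 0 to 600 μM, in triplicate, after 2 h of shaking at room temperature.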

[7] = tested on: MDR1 (P-gp); experiment: BBB penetration potential, MDR1-MDCK permeability; assay type: in vitro ADME; settings: dog; for Papp A→B at 120 min, 5 μM: apical to basolateral, pH 7.4, read-out: BBB penetration potential MDCK A-B 10−6 cm/s; for Papp B→A at 120 min, 5 μM: basolateral to apical, pH 7.4, read-out: BBB penetration potential MDCK B-A 10−6 cm/s
Procedure: BBB penetration potential assessment data in Table 1 was obtained as follows. MDR1-MDCK cell monolayers were grown to confluence on collagen-coated, microporous membranes in 12-well assay plates. Atenolol, propranolol and digoxin were used as control to assess plate quality. The permeability assay buffer was Hanks' balanced salt solution containing 10 mM HEPES and 15 mM glucose at a pH of 7.4. The buffer in the receiver chamber also contained 1% bovine serum albumin. The dosing solution concentration was 5 μM of test article in the assay buffer. Cell monolayers were dosed on the apical side (A-to-B) or basolateral side (B-to-A) and incubated at 37° C. with 5% CO2 in a humidified incubator. Samples were taken from the donor and receiver chambers at 120 minutes. Each determination was performed in duplicate the flux of lucifer yellow was also measured post-experimentally for each monolayer to ensure no damage was inflicted to the cell monolayers during the flux period. All samples were assayed by LC-MS/MS using electrospray ionization using a PE SCIEX API 4000 spectrometer and total run time of 1 min. Analytical method/conditions were: Liquid Chromatography Column: Waters ACQUITY UPLC BEH Phenyl 30×2.1 mm, 1.7 m; M.P. Buffer: 25 mM ammonium formate buffer, pH 3.5; Aqueous Reservoir (A): 90% water, 10% buffer; Organic Reservoir (B): 90% acetonitrile, 10% buffer; Flow Rate: 0.7 mL/minute; gradient program: 99% A (t=0 min), 1% A (t=0.65 min), 1% A (t=0.75 min), 99% A (t=0.8 min), 99% A (t=1 min); 5 μL injection volume
The apparent permeability (Papp) and percent recovery were calculated as follows: Papp=(dCr/dt)×Vr/(A×CA) (1) Percent Recovery=100×((Vr×Cr^final)+(Vd×Cd^final))/(Vd×CN) (2)
wherein: • dCr/dt is the slope of the cumulative concentration in the receiver compartment versus time in μMs^−1; • Vr is the volume of the receiver compartment in cm^3; • Vd is the volume of the donor compartment in cm^3; • A is the area of the insert (1.13 cm^2 for 12-well); • CA is the average of the nominal dosing concentration and the measured 120 minute donor concentration in μM; • CN is the nominal concentration of the dosing solution in μM; • Cr^final is the cumulative receiver concentration in μM at the end of the incubation period; • Cd^final is the concentration of the donor in μM at the end of the incubation period. Efflux ratio (ER) is defined as Papp (B-to-A)/Papp (A-to-B) Interpretation Brain Penetration Potential Classification: • Papp (A-to-B)≥3.0 and ER<3.0: High • Papp (A-to-B)≥3.0 and 10>ER≥3.0: Moderate • Papp (A-to-B)≥3.0 and ER≥10, or Papp (A-to-B)<3.0 Low

[8] = tested on: 20-HETE formation (CYP4) in RKM; experiment: Inhibition of 20-HETE formation at 250 or 500 nM in RKM microsomal incubations; assay type: biochemical, rat; settings: 500 nM compound; RKM 300 μg/ml
Outline: as §1

HLM % inh. @ 500 nM [1] [%] | IC50 [2] [µM] | inhibition at 0.5 µM [3] [%] | Stability HLM % @ 30 min [4] [%] | RLM % inh. @ 500 nM [5] [%] | solubility at 2 h ([6]; OD620, read-out: Max Solub) [µM] | solubility at 2 h ([6]; read-out: Solubility_ug/mL) [µg/mL] | Papp A→B at 120 min, 5 μM [7] [×10⁻⁶ cm/s] | Papp B→A at 120 min, 5 μM [7] [×10⁻⁶ cm/s] | RKM % inh. @ 500 nM [8] [%] | SMILES
84.10 | 0.08 | 74.8 | 100 | 13.40 | 244 | 78 |  |  |  | CCS(=O)(=O)c1ccc(C2CCN(c3cn[nH]c3)CC2)cc1 [Compound 52, 4-(4-(Ethylsulfonyl)phenyl)-1-(1H-pyrazol-4-yl)piperidine]
53.00 | 0.22 | 60 | 97 | 0.00 |  |  |  |  |  | c1ccc(OC2CCN(c3cn[nH]c3)CC2)cc1 [Compound 14, 4-Phenoxy-1-(1H-pyrazol-4-yl)piperidine]
67.40 | 0.11 | 70.6 | 97 | 0.00 | 394 | 126 |  |  |  | CCS(=O)(=O)c1ccc(C2CCN(c3ccn[nH]3)CC2)cc1 [Compound 58, 4-(4-(Ethylsulfonyl)phenyl)-1-(1H-pyrazol-5-yl)piperidine]
3.70 |  | 38.4 | 100 | 0.00 |  |  |  |  |  | COc1cncc(C2CCN(c3ccn[nH]3)CC2)c1 [Compound 60, 3-(1-(1H-Pyrazol-5-yl)piperidin-4-yl)-5-methoxypyridine]
73.80 | 0.08 | 79.9 | 92 | 16.30 | 85.4 | 20.6 |  |  |  | Cc1ccc(C2CCN(c3cn[nH]c3)CC2)cc1 [Compound 24, 1-(1H-Pyrazol-4-yl)-4-(p-tolyl)piperidine]
88 |  | 72 |  | 49.00 | 19.5 |  | 46.4 | 34.8 |  | COc1ccc(C2CCN(c3cn[nH]c3)CC2)cc1Cl [Compound 64, 4-(3-Chloro-4-methoxyphenyl)-1-(1H-pyrazol-4-yl)piperidine]
67.40 | 0.11 | 70.8 | 61 | 0.00 | 166 | 40.1 |  |  |  | Cc1ccc(C2CCN(c3ccn[nH]3)CC2)cc1 [Compound 23, 1-(1H-Pyrazol-5-yl)-4-(p-tolyl)piperidine]
79.00 |  | 80 |  | 48.70 | 158 |  | 33.8 | 46.7 |  | O=C1CCCN1c1ccc(C2CCN(c3ccn[nH]3)CC2)cc1 [Compound 101, 1-(4-(1-(1H-Pyrazol-5-yl)piperidin-4-yl)phenyl)pyrrolidin-2-one]
63.30 | 0.19 | 73.7 | 98 | 64.40 | > 600 | 155 |  |  |  | COc1cncc(C2CCN(c3cn[nH]c3)CC2)c1 [Compound 59, 3-(1-(1H-Pyrazol-4-yl)piperidin-4-yl)-5-methoxypyridine]
65.80 | 0.1 | 75.9 | 82 | 7.80 | 95.5 | 24.8 |  |  |  | c1ccc(SC2CCN(c3cn[nH]c3)CC2)cc1 [Compound 40, 4-(Phenylthio)-1-(1H-pyrazol-4-yl)piperidine]
71.70 | 0.2 | 81.7 | 100 | 27.80 | 366 | 99.4 |  |  |  | COCc1ccc(C2CCN(c3cn[nH]c3)CC2)cc1 [Compound 26, 4-(4-(Methoxymethyl)phenyl)-1-(1H-pyrazol-4-yl)piperidine]
56.40 | 0.28 | 67.8 | 100 | 21.30 | 235 | 63.9 |  |  |  | COCc1ccc(C2CCN(c3ccn[nH]3)CC2)cc1 [Compound 25, 4-(4-(Methoxymethyl)phenyl)-1-(1H-pyrazol-5-yl)piperidine]
82.00 | 0.08 | 88 | 100 | 63.00 |  |  |  |  | 0.00 | COc1ccc(C2CCN(c3cn[nH]c3)CC2)c(F)c1 [Compound 47, 4-(2-Fluoro-4-methoxyphenyl)-1-(1H-pyrazol-4-yl)piperidine]

— US12479816B2, “20-HETE formation inhibitors” (UNIVERSITY OF PITTSBURGH—OF THE COMMONWEALTH SYSTEM OF …, priority 2019, dated 2025)
